Measured values published in patent US5028629A, “5-Lipoxygenase inhibitors” (Eli Lilly and Company, priority 1990, dated 1991).
Read-outs that look alike come from different tables or passages of the source.

How the values were obtained:
[1] = tested on: polymorphonuclear leukocytes (PMNs); assay: H-PMN Assay: LTB4 content of supernatant of A23187-stimulated human PMNs by radioimmunoassay; assay type: cell-based; details: Table II, human PMNs, calcium ionophore A23187, 37° C. for 10 minutes, LTB4 by radioimmunoassay
Experimental: Sodium citrated venous blood is drawn from normal human subjects. After centrifugation at 300 ×g for 15 minutes, the platelet-rich layer of plasma is discarded and an equal volume of Hanks' balanced salt solution (HBSS) is added to the enriched cell fraction. This platelet-depleted cell suspension is then layered on an equal volume of Ficoll-Paque. After centrifugation for 40 minutes at 300 ×g, the bottom layer containing erythrocytes and polymorphonuclear leukocytes (PMNs) is diluted with two volumes of a 0.2% methocel solution. The erythrocytes are sedimented upon standing for 15 minutes, and the supernatant containing the PMNs is aspirated and centrifuged at 300 ×g, for 5 minutes. The cell pellet is then exposed to 0.2% NaCl for 30 seconds to lyse any remaining erythrocytes, and the ionic strength of the suspension is readjusted to 0.9% with NaCl. The PMNs are recovered by centrifugation at 300 ×g for 5 minutes and are suspended in HBSS to a concentration of 2 ×10^6 cells/ml.
The test compounds are dissolved in and diluted with dimethylsulfoxide (DMSO) which also contains 2×10^-6 M of the calcium ionophore, A23187. To 1 ml of the PMN suspension, 10 μl of the DMSO solution is added, and the mixture is incubated at 37° C. for 10 minutes. The PMNs are rapidly pelleted in a microcentrifuge, and the supernatant is kept at -20° C. for future determination of LTB4 content via the radioimmunoassay.

5-lipoxygenase = biological target: T1, 5-lipoxygenase (Cavia porcellus, UniProt A0A286X958); assay: 5-Lipoxygenase (5-LO) Assay: 5-HETE formation in supernatant of guinea pig PMNL sonicate; assay type: biochemical
T1 construct: 0.2 ml of the supernatant obtained from the PMNL sonicate; endogenous in cells; host or cells: casein-elicited guinea pig peritoneal polymorphonuclear leukocytes (PMNL), sonicate, 30,000 x g supernatant
T1 sequence (A0A286X958 1-674): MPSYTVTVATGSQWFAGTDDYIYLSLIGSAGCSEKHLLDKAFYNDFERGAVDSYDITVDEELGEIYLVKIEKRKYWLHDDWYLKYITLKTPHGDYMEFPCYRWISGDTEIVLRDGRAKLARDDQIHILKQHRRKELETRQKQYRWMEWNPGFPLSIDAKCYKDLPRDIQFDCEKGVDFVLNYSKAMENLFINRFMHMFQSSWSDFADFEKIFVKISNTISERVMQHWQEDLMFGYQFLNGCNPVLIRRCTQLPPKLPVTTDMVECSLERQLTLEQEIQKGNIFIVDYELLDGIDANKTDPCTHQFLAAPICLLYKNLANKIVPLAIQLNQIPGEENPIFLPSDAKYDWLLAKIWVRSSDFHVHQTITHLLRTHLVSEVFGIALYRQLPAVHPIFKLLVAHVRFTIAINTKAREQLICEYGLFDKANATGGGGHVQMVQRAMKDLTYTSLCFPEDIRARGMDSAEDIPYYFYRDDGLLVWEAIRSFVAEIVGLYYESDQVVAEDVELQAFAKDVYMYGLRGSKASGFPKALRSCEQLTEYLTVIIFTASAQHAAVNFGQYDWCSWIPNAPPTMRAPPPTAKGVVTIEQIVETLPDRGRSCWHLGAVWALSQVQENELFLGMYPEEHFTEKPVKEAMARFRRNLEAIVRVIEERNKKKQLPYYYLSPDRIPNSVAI
Experimental: Ten milliliters of a 2% casein solution is injected intraperitoneally to guinea pigs weighing 250-300 gm. After 16-18 hours, the guinea pigs are killed by suffocation in a carbon dioxide chamber. The peritoneal cavity is infused with 70 ml of saline and 40-50 ml of the fluid is recovered from the cavity. After centrifugation, cell pellets are washed twice in Hank's balanced salt solution (HBSS) without calcium ion.
The cells are then suspended in 5 ml of sodium phosphate buffer, pH 7.1 containing 1 mM, ethylene diamine tetraacetic acid (EDTA), and 0.1% gelatin. About 20-30×10^7 cells are obtained from one guinea pig.
The PMNL suspension is disrupted by five 1/2-second pulse sonication at the setting of 3 in a Branson Sonifier, Model 350, equipped with a microtip. The sonicates are combined and centrifuged at 30,000 ×g for 10 minutes. The supernatant is kept frozen at -70° C. until use.
Enzyme activity is determined by assaying for 5-hydroxy-6,8,11,14-eicosatetraenoic acid (5-HETE) formation by first incubating 0.2 ml of the supernatant obtained from the PMNL sonicate with the test compound, 1 mM CaCl2, 2 mM ATP, and 1 mM GSH for 5 minutes at 37° C. The mixture is treated with […] ^14 C-arachidonic acid and incubated at 37° C. an additional 10 minutes. The enzyme reaction is then stopped by the addition of 10 μl of 1M citric acid and 10 μl of an alcohol solution containing 20 mg/ml each of indomethacin and butylated hydroxyanisole (BHA). The reaction mixture is spotted (50 μl) on a silica gel plate (Baker TLC plate S1250-PA-19C) and subjected to TLC in a solvent system of ethyl acetate/2,2,4-trimethylpentane/glacialacetic acid/H2 O (90:50:20:100).
The radioactivity of the arachidonic acid and its metabolites (5-HETE and LTB4) is visualized from a developed x-ray film which had been exposed to the TLC plate 1-2 days. The amount of 5-HETE formed is quantitated by scraping the silica gel area corresponding to the spot on the x-ray film, and the radioactivity determined in a Isocap/300 liquid scintillation counter (Searle Analytic, Inc.).
The percent inhibition of the formation of 5-HETE is determined for each concentration of compound tested as compared to a control experiment wherein no test compound is added. The concentration and percent values are plotted on semi log paper and the concentration in which formation of 5-HETE is inhibited by 50% (IC50) is determined by interpolation.

[2] = Table II, guinea pig PMNL sonicate supernatant, 14C-arachidonic acid, 37° C., read-out: 5-LO (concentration in which formation of 5-HETE is inhibited by 50%, IC50)
[3] = second table (Table III), known hydroxamic acid derivatives as comparison, read-out: 5-Lo (IC50)

Row | Compound | IC50 (5-lipoxygenase; [2]) | IC50 ([1]; Leukocyte, 10 min) | also measured
1 | 2-methylsulfonyl-4-n-hexyl-N-hydroxy-N-methylcinnamamide [Example 22] | 0.148 µM |  | IC50 [1]: 0.204 µM
2 | C=CCCSc1ccccc1C=CC(=O)N(C)O [Example 2] | 0.044 µM | 0.012 µM | 
3 | CCCCCCSc1ccccc1C=CC(=O)N(C)O [Example 3, 2-n-hexylthio-N-hydroxy-N-methylcinnamamide] | 0.017 µM | 0.009 µM | 
4 | CCCCc1ccccc1C=CC(=O)N(C)O [Example 4, 2-n-butyl-N-hydroxy-N-methylcinnamamide] | 0.072 µM | 0.075 µM | 
5 | CN(O)C(=O)C=Cc1ccccc1SCCCC(F)(F)F [Example 5, 2-[1-(3-trifluoromethylpropyl)thio]-N-hydroxy-N-methylcinnamamide] | 0.032 µM | 0.024 µM | 
6 | CSc1cc(CCCc2ccccc2)ccc1C=CC(=O)N(C)O [Example 6, 2-methylthio-4-(3-phenylpropyl)-N-hydroxy-N-methylcinnamamide] | 0.007 µM |  | 
7 | CCCCSc1cc(C(F)(F)F)ccc1C=CC(=O)N(C)O [Example 7, 2-n-butylthio-4-trifluoromethyl-N-hydroxy-N-methylcinnamamide] | 0.024 µM |  | 
8 | CCCCc1cc(SC)ccc1C=CC(=O)N(C)O [Example 8, 2-n-butyl-4-methylthio-N-hydroxy-N-methylcinnamamide] | 0.023 µM |  | 
9 | CCCCCCc1ccc(S(C)(=O)=O)c(C=CC(=O)N(C)O)c1 [Example 9, 2-methylsulfonyl-5-n-hexyl-N-hydroxy-N-methylcinnamamide] | 0.09 µM | 0.259 µM | 
10 | CCCCCCc1ccc(C=CC(=O)N(C)O)c([S+](C)[O-])c1 (stereo not shown) [Example 10, 2-methylsulfinyl-4-n-hexyl-N-hydroxy-N-methylcinnamamide] | 0.097 µM | 0.118 µM | 
11 | CCCCCCc1ccc([S+](C)[O-])c(C=CC(=O)N(C)O)c1 (stereo not shown) [Example 11, 2-methylsulfinyl-5-n-hexyl-N-hydroxy-N-methylcinnamamide] | 0.096 µM | 0.071 µM | 
12 | CN(O)C(=O)C=Cc1ccc(S(C)(=O)=O)cc1Cc1ccccc1 [Example 12, 2-benzyl-4-methylsulfonyl-N-hydroxy-N-methylcinnamamide] | 0.695 µM |  | 
13 | CSc1ccc(C=CC(=O)N(C)O)c(Cc2ccccc2)c1 [Example 13, 2-benzyl-4-methylthio-N-hydroxy-N-methylcinnamamide] | 0.023 µM |  | 
14 | CSc1ccc(Cc2ccccc2C=CC(=O)N(C)O)cc1 [Example 14, 2-(4-methylthiobenzyl)-N-hydroxy-N-methylcinnamamide] | 0.031 µM |  | 
15 | CN(O)C(=O)C=Cc1ccccc1Cc1ccc(S(C)(=O)=O)cc1 [Example 15, 2-(4-methylsulfonylbenzyl)-N-hydroxy-N-methylcinnamamide] | 0.49 µM |  | 
16 | CN(O)C(=O)C=Cc1ccc(CCCc2ccccc2)cc1S(C)(=O)=O [Example 16, 2-methylsulfonyl-4-(3-phenylpropyl)-N-hydroxy-N-methylcinnamamide] | 0.074 µM |  | 
17 | CCCCCCc1cccc(C=CC(=O)N(C)O)c1SC [Example 17, 2-(methylthio)-3-n-hexyl-N-hydroxy-N-methylcinnamamide] | 0.059 µM | 0.15 µM | 

Row | Compound | IC50 (5-lipoxygenase; [2]) | IC50 ([1]; Leukocyte, 10 min) | also measured
18 | CN(O)C(=O)C=Cc1ccccc1SC(C)(C)C [Example 18, 2-tert-butylthio-N-hydroxy-N-methyl-cinnamamide] | 0.175 µM |  | 
19 | CCCCCCc1ccc(C=CC(=O)N(C)O)c(SC)c1 [Example 19, 2-methylthio-4-n-hexyl-N-hydroxy-N-methylcinnamamide] | 0.082 µM | 0.025 µM | 
20 | CCCCCCc1cccc(C=CC(=O)N(C)O)c1[S+](C)[O-] (stereo not shown) [Example 20, 2-methylsulfinyl-3-n-hexyl-N-hydroxy-N-methylcinnamamide] | 0.459 µM | 0.19 µM | 
21 | CCCCCCc1cccc(C=CC(=O)N(C)O)c1S(C)(=O)=O [Example 21, 2-methylsulfonyl-3-n-hexyl-N-hydroxy-N-methylcinnamamide] | 0.166 µM | 0.461 µM | 
22 | CN(O)C(=O)C=Cc1ccccc1-c1ccccc1 [Example 24, 2-phenyl-N-hydroxy-N-methylcinnamamide] | 0.131 µM |  | 
23 | CN(O)C(=O)C=Cc1ccccc1SCCc1ccccc1 [Example 25, 2-[1-(2-phenylethyl)thio]-N-hydroxy-N-methyl-cinnamamide] | 0.014 µM |  | 
24 | CN(O)C(=O)C=Cc1ccccc1SCC1CCCCC1 [Example 26, 2-cyclohexylmethylthio-N-hydroxy-N-methylcinnamamide] | 0.014 µM |  | 
25 | CCCCSc1ccccc1C=CC(=O)N(O)C(C)C [Example 28, 2-n-butylthio-N-hydroxy-N-isopropylcinnamamide] | 0.008 µM |  | 
26 | CN(O)C(=O)C=Cc1ccc(CCCc2ccccc2)cc1[S+](C)[O-] (stereo not shown) [Example 32, 2-methylsulfinyl-4-(3-phenylpropyl)-N-hydroxy-N-methylcinnamamide] | 8.4 µM |  | 
27 | CCCCS(=O)(=O)c1ccccc1C=CC(=O)N(C)O [Example 34, 2-n-butylsulfonyl-N-hydroxy-N-methylcinnamamide] | 1.1 µM |  | 
28 | CCCC[S+]([O-])c1ccccc1C=CC(=O)N(C)O (stereo not shown) [Example 36, 2-n-butylsulfinyl-N-hydroxy-N-methylcinnamamide] | 2.44 µM |  | 
29 | CN(O)C(=O)C=Cc1ccccc1SCCCCCCc1ccccc1 [Example 39, 2-[10(6-phenylhexyl)thio]-N-hydroxy-N-methylcinnamamide] | 0.033 µM |  | 
30 | CN(O)C(=O)C=Cc1cc(CCCc2ccccc2)ccc1[S+](C)[O-] (stereo not shown) [Example 41, 2-methylsulfinyl-5-(3-phenylpropyl)-N-hydroxy-N-methylcinnamamide] | 0.16 µM |  | 
31 | CN(O)C(=O)C=Cc1cc(CCCc2ccccc2)ccc1S(C)(=O)=O [Example 42, 2-methylsulfonyl-5-(3-phenylpropyl)-N-hydroxy-N-methylcinnamamide] | 0.304 µM |  | 
32 | CSc1ccccc1C(=O)N(C)O [reference compound] |  |  | IC50 (5-lipoxygenase; [3]): 44 µM
33 | CSc1ccc(CCCc2ccccc2)cc1C(=O)N(C)O [reference compound] |  |  | IC50 (5-lipoxygenase; [3]): 0.592 µM
34 | CCc1ccc(CCCc2ccccc2)cc1C(=O)N(C)O [reference compound] |  |  | IC50 (5-lipoxygenase; [3]): 0.55 µM
